Reference: patent EP4800018A1, “PAN-KRAS INHIBITOR AND USE THEREOF IN MEDICINES” (Betta Pharmaceuticals Co., Ltd., priority 2023, dated 2025)
Read-outs that look alike come from different tables or passages of the source.

Columns and labels:
Assay type in all cases: cell-based
KRAS G12V-cRAF = biological target: T1, KRAS G12V-cRAF (Homo sapiens, UniProt P01116, G12V); experiment: Cellular KRAS G12V-cRAF Binding Inhibition Assay (NanoBRET, AD293 stable cells)
T1 construct: expressed in transfected cells
Procedure, shortened: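 Live AD293 stable cells, NanoLuc donor with HaloTag NanoBRET 618 ligand acceptor added overnight. Inhibition percent from luminescence relative to max signal and medium blank; IC50 from curve fitting.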

KRAS G12D-cRAF = biological target: T2, KRAS G12D-cRAF (Homo sapiens, UniProt P01116, G12D); experiment: Cellular KRAS G12D-cRAF Binding Inhibition Assay (NanoBRET, AD293 stable cells)
T2 construct: expressed in transfected cells
Procedure, shortened: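 AD293 cells stably expressing KRAS G12D-NanoLuc and cRAF RBD-HaloTag were seeded at 1×10^4 cells/well with NanoBRET 618 ligand overnight. BRET signal was converted to % inhibition of binding relative to max and blank wells, and IC50 came from curve fitting.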

[1] = tested on: KRAS-G12V mutant tumor cells SW620; experiment: Cell Proliferation Inhibition Assay (SW620), Cell-titer GLO, 96 h; details: read-out: SW620(G12V)
Procedure, shortened: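 SW620 cells (1×10^3/well, low-attachment) were exposed to compound from 10000 to 0.03 nM (0.5% DMSO) for 96 h at 37°C. Viability was read by Cell-titer GLO luminescence. Inhibition was calculated relative to DMSO and blank wells, and IC50 obtained by curve fitting.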

[2] = tested on: KRAS-G12D mutant tumor cells AGS; experiment: Cell Proliferation Inhibition Assay (AGS), Cell-titer GLO, 96 h; details: read-out: AGS(G12D)
Procedure, shortened: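 AGS cells (KRAS-G12D) grown in low-attachment plates were exposed to compound for 96 h at 37°C. Viability was read by CellTiter-Glo luminescence and converted to % inhibition against max and blank wells. IC50 came from curve fitting.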

[3] = 3 h incubation, read-out: NanoBRET KRAS G12V
[4] = 3 h incubation, read-out: NanoBRET KRAS G12D
[5] = Homo sapiens, SW-620, 96 h, SW620 cells, 96 h incubation, Cell-titer GLO
[6] = Homo sapiens, AGS, 96 h, AGS cells, 96 h incubation, Cell-titer GLO
[7] = NanoBRET KRAS G12V, 3 h incubation
[8] = NanoBRET KRAS G12D, 3 h incubation

T1 sequence (P01116 1-188 isoform P01116-2 G12V): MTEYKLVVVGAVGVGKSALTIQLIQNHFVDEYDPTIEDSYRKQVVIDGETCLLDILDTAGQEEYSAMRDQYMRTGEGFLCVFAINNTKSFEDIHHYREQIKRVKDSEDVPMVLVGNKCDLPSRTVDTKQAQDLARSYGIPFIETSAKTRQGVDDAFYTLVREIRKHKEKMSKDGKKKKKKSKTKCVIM
T2 sequence (P01116 1-188 isoform P01116-2 G12D): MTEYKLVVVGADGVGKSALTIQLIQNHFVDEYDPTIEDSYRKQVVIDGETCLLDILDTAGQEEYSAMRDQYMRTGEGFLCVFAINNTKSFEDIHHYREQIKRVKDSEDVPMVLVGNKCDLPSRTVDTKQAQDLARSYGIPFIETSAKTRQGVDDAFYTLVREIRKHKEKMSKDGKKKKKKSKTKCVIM

## COC1CCN(c2cnc3c(c2)-c2c4c5cc(ccc5n2CCCOC3C)-c2csc(n2)CC(NC(=O)C2CC2C(F)F)C(=O)N2CCCC(N2)C(=O)OCC(C)(C)C4)C1 [Example 136, (1S,2S)-2-(difluoromethyl)-N-((1^5S,6^3S,4S,Z)-1^2-((S)-3-methoxypyrrolidin-1-yl)-1^5,10,10-trimethyl-5,7-dioxo-1^8,1^9,6^1,6^2,6^3,6^4,6^5,6^6-octahydro-1^5H,1^7H-8-oxa-1(13,15)-pyrido[3',2':7,8][1,5]oxazonino[5,6-alindola-2(4,2)-thiazola-6(1,3)-pyridazinacycloundecaphane-4-yl)cyclopropane-1-carboxamide]
KRAS G12V-cRAF; [3]
  IC50: 19.6 nM
KRAS G12D-cRAF; [4]
  IC50: 4.59 nM
[1]; SW620 cells, 96 h incubation, Cell-titer GLO
  IC50: 1.5 nM
[2]; AGS cells, 96 h incubation, Cell-titer GLO
  IC50: 5.6 nM

## C[C@@H]1OCCCn2c(c3c4cc(ccc42)-c2csc(n2)C[C@H](NC(=O)[C@H]2C[C@@H]2C(F)F)C(=O)N2CCC[C@H](N2)C(=O)OCC(C)(C)C3)-c2cc(N3CC4(CCN(C)CC4)C3)cnc21 [Example 100, (1S,2S)-2-(difluoromethyl)-N-((1^5S,6^3S,4S,Z)-1^5,10,10-trimethyl-1^2-(7-methyl-2,7-diazaspiro[3. 5]nonan-2-yl)-5,7-dioxo-1^8,1^9,6^1,6^2,6^3,6^4,6^5,6^6-octahydro-1^5H,1^7H-8-oxa-1(13,15)-pyrido[3',2':7, 8][1,5]oxazonino[5,6-a]indola-2(4,2)-thiazola-6(1,3)-pyridazinacycloundecaphane-4-yl)cyclopro pane-1-carboxamide]
KRAS G12V-cRAF; read-out: NanoBRET KRAS G12V, 3 h incubation
  IC50: 21.7 nM
KRAS G12D-cRAF; read-out: NanoBRET KRAS G12D, 3 h incubation
  IC50: 4.55 nM
[1]; Homo sapiens, SW-620, 96 h
  IC50: 0.1 nM
[2]; Homo sapiens, AGS, 96 h
  IC50: 0.44 nM

## CC1OCCCn2c(c3c4cc(ccc42)-c2csc(n2)CC(NC(=O)C24CC(C)(C2)C4)C(=O)N2CCCC(N2)C(=O)OCC(C)(C)C3)-c2cc(N3CCN(CC(F)(F)F)CC3)cnc21 [Example 39, 3-methyl-N-((1^5S,6^3S,4S,Z)-1^5,10,10-trimethyl-5,7-dioxo-1^2-(4-(2,2,2-trifluoroethyl)piperazin-1-yl)-1^8,1^9,6^1,6^2,6^3,6^4,6^5,6^6-octahydro-1^5H,1^7H-8-oxa-1(13,15)-pyrido[3',2':7,8][1,5]oxazonino[5,6-a]indola-2(4,2)-thiazola-6(1,3)-pyridazinacycloundecaphane-4-yl)bicyclo[1.1.1]pentane-1-carbo xamide]
KRAS G12V-cRAF; [3]
  IC50: 86.4 nM
KRAS G12D-cRAF; [4]
  IC50: 22.1 nM
[1]; [5]
  IC50: 8.17 nM
[2]; [6]
  IC50: 33.7 nM

## C[C@@H]1OCC[C@H](C)n2c(c3c4cc(ccc42)-c2csc(n2)C[C@H](NC(=O)[C@H]2C[C@@H]2C)C(=O)N2CCC[C@H](N2)C(=O)OCC(C)(C)C3)-c2cc(N3CCN(C)CC3)cnc21 [Example 5, (1S,2S)-2-methyl-N-((1^5S,1^9S,6^3S,4S,Z)-1^5,1^9,10,10-tetramethyl-1^2-(4-methylpiperazin-1-yl)-5,7-dioxo-1^8,1^9,6^1,6^2,6^3,6^4,6^5,6^6-octahydro-1^5H,1^7H-8-oxa-1(13,15)-pyrido[3',2':7,8][1,5]oxazonino[5,6-a]indola-2(4,2)-thiazola-6(1,3)-pyridazinacycloundecaphane-4-yl)cyclopropane-1-carboxamide]
KRAS G12V-cRAF; [7]
  IC50: 78.8 nM
KRAS G12D-cRAF; [8]
  IC50: 25.9 nM
[1]; Homo sapiens, SW-620, 96 h
  IC50: 1.08 nM
[2]; Homo sapiens, AGS, 96 h
  IC50: 6.92 nM

## CC1OCCCn2c(c3c4cc(ccc42)-c2csc(n2)CC(NC(=O)C24CC(C)(C2)C4)C(=O)N2CCCC(N2)C(=O)OCC(C)(C)C3)-c2cc(N3CCN(C4CC4)CC3)cnc21 [Example 40, N-((1^5S,6^3S,4S,Z)-1^2-(4-cyclopropylpiperazin-1-yl)-1^5,10,10-trimethyl-5,7-dioxo-1^8,1^9,6^1,6^2,6^3,6 ^4,6^5,6^6-octahydro-1^5H,1^7H-8-oxa-1(13,15)-pyrido[3',2':7,8][1,5]oxazonino[5,6-a]indola-2(4,2)-thiazola-6(1,3)-pyridazinacycloundecaphane-4-yl)-3-methylbicyclo[1.1.1]pentane-1-carboxamide]
KRAS G12V-cRAF; [3]
  IC50: 61.1 nM
KRAS G12D-cRAF; [4]
  IC50: 15.8 nM
[1]; [5]
  IC50: 4.29 nM
[2]; [6]
  IC50: 22.4 nM

## CC1CN(c2cnc3c(c2)-c2c4c5cc(ccc5n2CCCOC3C)-c2csc(n2)CC(NC(=O)C2CC2C(F)F)C(=O)N2CCCC(N2)C(=O)OCC(C)(C)C4)CCO1 [Example 130, (1S,2S)-2-(difluoromethyl)-N-((1^5S,6^3S,4S,Z)-1^5,10,10-trimethyl-1^2-((R)-2-methylmorpholino)-5,7-dioxo-1^8,1^9,6^1,6^2,6^3,6^4,6^5,6^6-octahydro-1^5H,^7H-8-oxa-1(13,15)-pyrido[3',2':7,8][1,5]oxazonino[5,6-a]indola-2(4,2)-thiazola-6(1,3)-pyridazinacycloundecaphane-4-yl)cyclopropane-1-carbox amide]
KRAS G12V-cRAF; [3]
  IC50: 16.3 nM
KRAS G12D-cRAF; [4]
  IC50: 3.4 nM
[1]; [5]
  IC50: 0.85 nM
[2]; [6]
  IC50: 1.8 nM

## CCN1CCN(c2cnc3c(c2)-c2c4c5cc(ccc5n2CCCOC3C)-c2csc(n2)CC(NC(=O)C2C(C)C2C)C(=O)N2CCCC(N2)C(=O)OCC(C)(C)C4)CC1 [Example 159, (1r,2R,3S)-N-((1^5S,6^3S,4S,Z)-1^2-(4-ethylpiperazin-1-yl)-1^5,10,10-trimethyl-5,7-dioxo-1^8,1^9,6^1,6^2 ,6^3,6^4,6^5,6^6-octahydro-1^5H,1^7H-8-oxa-1(13,15)-pyrido[3',2':7,8][1,5]oxazonino[5,6-a]indola-2(4, 2)-thiazola-6(1,3)-pyridazinacycloundecaphane-4-yl)-2,3-dimethylcyclopropane-1-carboxamide]
KRAS G12V-cRAF; [3]
  IC50: 3.83 nM
KRAS G12D-cRAF; [4]
  IC50: 0.38 nM
[1]; [5]
  IC50: 0.06 nM
[2]; [6]
  IC50: 0.21 nM

## CC1OCCCn2c(c3c4cc(ccc42)-c2csc(n2)CC(NC(=O)C2C(C)C2C)C(=O)N2CCCC(N2)C(=O)OCC(C)(C)C3)-c2cc(N3CC(C)N(C)C(C)C3)cnc21 [Example 165, (1r,2R,3S)-2,3-dimethyl-N-((1^5S,6^3S,4S,Z)-1^5,10,10-trimethyl-5,7-dioxo-1^2-((3S,5R)-3,4,5-trimethylpiperazin-1-yl)-1^8,1^9,6^1,6^2,6^3,6^4,6^5,6^6-octahydro-1^5H,1^7H-8-oxa-1(13,15)-pyrido[3',2':7,8][1, 5]oxazonino[5,6-a]indola-2(4,2)-thiazola-6(1,3)-pyridazinacycloundecaphane-4-yl)cyclopropane-1-carboxamide]
KRAS G12V-cRAF; [3]
  IC50: 3.8 nM
KRAS G12D-cRAF; [4]
  IC50: 0.76 nM
[1]; [5]
  IC50: 0.05 nM
[2]; [6]
  IC50: 0.19 nM

## CCN1CCN(c2cnc3c(c2)-c2c4c5cc(ccc5n2CCCOC3C)-c2csc(n2)CC(NC(=O)C23CC(C)(C2)C3)C(=O)N2CCCC(N2)C(=O)OCC(C)(C)C4)CC1 [Example 37, N-((1^5S,6^3S,4S,Z)-1^2-(4-ethylpiperazin-1-yl)-1^5,10,10-trimethyl-5,7-dioxo-1^8,1^9,6^1,6^2,6^3,6^4,6^56^6-octahydro-1^5H,1^7H-8-oxa-1(13,15)-pyrido[3',2':7,8][1,5]oxazonino[5,6-a]indola-2(4,2)-thiazola-6(1,3)-pyridazinacycloundecaphane-4-yl)-3-methylbicyclo[1.1.1]pentane-1-carboxamide]
KRAS G12V-cRAF; [3]
  IC50: 22.4 nM
KRAS G12D-cRAF; [4]
  IC50: 5.32 nM
[1]; [5]
  IC50: 1.02 nM
[2]; [6]
  IC50: 4.28 nM

## CC1CN(c2cnc3c(c2)-c2c4c5cc(ccc5n2CCCOC3C)-c2csc(n2)CC(NC(=O)C2CC2C(F)F)C(=O)N2CCCC(N2)C(=O)OCC(C)(C)C4)CC(C)O1 [Example 128, (1S,2S)-2-(difluoromethyl)-N-((1^5S,6^3S,4S,Z)-1^2-((2S,6R)-2,6-dimethylmorpholino)-1^5,0,10-trimethyl-5,7-dioxo-1^8,1^9,6^1,6^2,6^3,6^4,6^5,6^6-octahydro-1^5H,1^7H-8-oxa-1(13,15)-pyrido[3',2':7,8][1,5]oxazonino[5,6-a]indola-2(4,2)-thiazola-6(1,3)-pyridazinacycloundecaphane-4-yl)cyclopropane-1-carboxamide]
KRAS G12V-cRAF; [3]
  IC50: 11.4 nM
KRAS G12D-cRAF; [4]
  IC50: 2.5 nM
[1]; [5]
  IC50: 0.29 nM
[2]; [6]
  IC50: 1.28 nM

## C[C@H]1C[C@@H]1C(=O)N[C@H]1Cc2nc(cs2)-c2ccc3c(c2)c(c2n3[C@@H](C)CCOCc3ncc(N4CCN(C)CC4)cc3-2)CC(C)(C)COC(=O)[C@@H]2CCCN(N2)C1=O [Example 4, (1S,2S)-2-methyl-N-((1^9S,6^3S,4S,Z)-1^9,10,10-trimethyl-1^2-(4-methylpiperazin-1-yl)-5,7-dioxo-1 ^8,1^9,6^1,6^2,6^3,6^4,6^5,6^6-octahydro-1^5H,1^7H-8-oxa-1(13,15)-pyrido[3',2':7,8][1,5]oxazonino[5,6-a]indola-2(4,2)-thiazola-6(1,3)-pyridazinacycloundecaphane-4-yl)cyclopropane-1-carboxamide]
KRAS G12V-cRAF; [7]
  IC50: 651 nM
KRAS G12D-cRAF; [8]
  IC50: 155 nM
[1]; Homo sapiens, SW-620, 96 h
  IC50: 6.2 nM
[2]; Homo sapiens, AGS, 96 h
  IC50: 51.9 nM
